For data set [1], the target named is T1, Neuropeptide Y receptor type 2 (Homo sapiens, UniProt P49146).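 Further: HEK293 cells expressing the receptor and a CNG channel; stimulus was NPY near EC95 followed by isoproterenol to raise cAMP; antagonist potency measured as restoring cAMP signal that NPY suppresses.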
T1 sequence (P49146 whole entry): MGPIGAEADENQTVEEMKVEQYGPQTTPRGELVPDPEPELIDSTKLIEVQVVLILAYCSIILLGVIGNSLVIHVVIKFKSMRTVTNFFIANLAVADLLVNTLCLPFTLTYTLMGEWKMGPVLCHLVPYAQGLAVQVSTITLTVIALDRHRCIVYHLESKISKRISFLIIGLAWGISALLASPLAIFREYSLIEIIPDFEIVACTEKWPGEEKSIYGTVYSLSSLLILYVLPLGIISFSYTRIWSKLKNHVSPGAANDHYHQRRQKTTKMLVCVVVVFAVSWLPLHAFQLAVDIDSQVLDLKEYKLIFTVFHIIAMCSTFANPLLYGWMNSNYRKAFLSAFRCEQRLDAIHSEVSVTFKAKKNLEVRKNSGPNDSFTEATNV
In kind it is functional, cell-based.

In data set [2] the target is T2, Neuropeptide Y receptor type 1 (Homo sapiens, UniProt P25929).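 Further: HEK293 cells with a CNG channel challenged with NPY then isoproterenol; potency as antagonist that reverses NPY suppression of cAMP signal.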
T2 sequence (P25929 whole entry): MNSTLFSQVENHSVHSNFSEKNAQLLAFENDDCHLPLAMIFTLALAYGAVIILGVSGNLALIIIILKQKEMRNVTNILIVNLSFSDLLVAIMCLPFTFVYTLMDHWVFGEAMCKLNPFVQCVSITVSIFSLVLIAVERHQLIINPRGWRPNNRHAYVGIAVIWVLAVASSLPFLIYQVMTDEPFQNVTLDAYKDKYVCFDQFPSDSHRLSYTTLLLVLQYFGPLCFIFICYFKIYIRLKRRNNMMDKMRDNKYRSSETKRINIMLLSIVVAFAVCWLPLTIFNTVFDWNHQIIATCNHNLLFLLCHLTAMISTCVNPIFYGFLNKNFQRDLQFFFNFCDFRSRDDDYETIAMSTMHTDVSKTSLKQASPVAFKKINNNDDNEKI
In kind it is functional.

Data set [3] concerns the target T3, High affinity choline transporter 1 (Homo sapiens, UniProt Q9GZV3).
T3 sequence (Q9GZV3 whole entry): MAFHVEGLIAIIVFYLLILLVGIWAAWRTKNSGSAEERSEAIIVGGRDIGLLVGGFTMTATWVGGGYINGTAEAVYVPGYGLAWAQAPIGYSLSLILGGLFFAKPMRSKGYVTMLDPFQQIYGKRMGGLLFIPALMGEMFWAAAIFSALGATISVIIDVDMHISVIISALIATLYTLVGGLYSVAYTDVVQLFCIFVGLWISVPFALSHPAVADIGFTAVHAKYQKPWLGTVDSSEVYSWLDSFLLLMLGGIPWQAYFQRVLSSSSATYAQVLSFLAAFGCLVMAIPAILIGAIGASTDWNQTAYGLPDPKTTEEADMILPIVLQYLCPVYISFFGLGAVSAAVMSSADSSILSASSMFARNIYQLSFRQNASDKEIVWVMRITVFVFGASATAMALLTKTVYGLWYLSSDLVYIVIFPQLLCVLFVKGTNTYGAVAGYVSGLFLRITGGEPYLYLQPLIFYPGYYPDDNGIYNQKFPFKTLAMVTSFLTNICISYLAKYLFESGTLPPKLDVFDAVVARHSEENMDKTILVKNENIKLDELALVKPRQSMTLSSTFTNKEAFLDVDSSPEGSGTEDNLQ
The experiment in a line: CHT activators, dose response, cell-based, 10-point CRC, membrane potential dye (AID 602376). In kind it is functional.

For data set [4], the target named is Protein disulfide-isomerase (Homo sapiens, UniProt P07237). The experiment in a line: PDI inhibitors, insulin aggregation turbidity, dose response, biochemical, absorbance, cherry-picked samples (AID 602350). In kind it is functional.
Protein disulfide-isomerase, sequence (P07237 whole entry): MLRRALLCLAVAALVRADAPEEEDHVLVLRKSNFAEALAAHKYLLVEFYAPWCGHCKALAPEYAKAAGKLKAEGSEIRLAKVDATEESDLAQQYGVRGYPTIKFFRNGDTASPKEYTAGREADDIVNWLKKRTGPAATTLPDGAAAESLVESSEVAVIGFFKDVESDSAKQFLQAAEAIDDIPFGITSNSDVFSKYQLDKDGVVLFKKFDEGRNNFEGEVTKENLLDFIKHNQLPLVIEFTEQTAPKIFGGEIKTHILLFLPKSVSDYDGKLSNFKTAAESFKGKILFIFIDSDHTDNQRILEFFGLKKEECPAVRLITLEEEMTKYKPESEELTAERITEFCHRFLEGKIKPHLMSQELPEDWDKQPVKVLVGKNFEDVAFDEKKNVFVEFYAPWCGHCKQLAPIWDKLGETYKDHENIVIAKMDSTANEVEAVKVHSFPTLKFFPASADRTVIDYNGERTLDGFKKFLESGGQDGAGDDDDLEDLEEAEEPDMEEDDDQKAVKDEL
Data set [5] has as its target Vascular endothelial growth factor receptor 2 (Homo sapiens, UniProt P35968). In kind it is functional.
The target in a further data set is Aurora kinase B (Homo sapiens, UniProt Q96GD4). In kind it is functional.
Aurora kinase B, sequence (Q96GD4 whole entry): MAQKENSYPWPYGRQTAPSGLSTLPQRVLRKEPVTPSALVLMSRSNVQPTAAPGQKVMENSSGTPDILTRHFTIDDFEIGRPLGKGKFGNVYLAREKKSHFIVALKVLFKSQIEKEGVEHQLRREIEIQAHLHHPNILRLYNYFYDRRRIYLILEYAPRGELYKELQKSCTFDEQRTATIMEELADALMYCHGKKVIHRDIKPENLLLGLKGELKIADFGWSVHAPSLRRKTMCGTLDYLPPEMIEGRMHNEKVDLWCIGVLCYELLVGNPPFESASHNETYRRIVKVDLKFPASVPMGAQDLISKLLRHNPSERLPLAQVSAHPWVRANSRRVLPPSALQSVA
Data set [6] deals with T4, Sentrin-specific protease 8 (Homo sapiens, UniProt Q96LD8).
T4 sequence (Q96LD8 whole entry): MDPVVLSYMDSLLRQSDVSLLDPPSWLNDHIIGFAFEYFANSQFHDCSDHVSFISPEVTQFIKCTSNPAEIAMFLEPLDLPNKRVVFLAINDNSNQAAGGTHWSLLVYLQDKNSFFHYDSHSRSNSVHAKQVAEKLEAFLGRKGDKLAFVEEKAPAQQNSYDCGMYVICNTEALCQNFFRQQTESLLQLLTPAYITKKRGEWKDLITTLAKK
The experiment in a line: SENP8 protease inhibitors, SAR follow-up, biochemical, luminescence, set 2 (AID 588601). In kind it is functional.

Data set [7] addresses T5, Sentrin-specific protease 7 (Homo sapiens, UniProt Q9BQF6).
T5 sequence (Q9BQF6 whole entry): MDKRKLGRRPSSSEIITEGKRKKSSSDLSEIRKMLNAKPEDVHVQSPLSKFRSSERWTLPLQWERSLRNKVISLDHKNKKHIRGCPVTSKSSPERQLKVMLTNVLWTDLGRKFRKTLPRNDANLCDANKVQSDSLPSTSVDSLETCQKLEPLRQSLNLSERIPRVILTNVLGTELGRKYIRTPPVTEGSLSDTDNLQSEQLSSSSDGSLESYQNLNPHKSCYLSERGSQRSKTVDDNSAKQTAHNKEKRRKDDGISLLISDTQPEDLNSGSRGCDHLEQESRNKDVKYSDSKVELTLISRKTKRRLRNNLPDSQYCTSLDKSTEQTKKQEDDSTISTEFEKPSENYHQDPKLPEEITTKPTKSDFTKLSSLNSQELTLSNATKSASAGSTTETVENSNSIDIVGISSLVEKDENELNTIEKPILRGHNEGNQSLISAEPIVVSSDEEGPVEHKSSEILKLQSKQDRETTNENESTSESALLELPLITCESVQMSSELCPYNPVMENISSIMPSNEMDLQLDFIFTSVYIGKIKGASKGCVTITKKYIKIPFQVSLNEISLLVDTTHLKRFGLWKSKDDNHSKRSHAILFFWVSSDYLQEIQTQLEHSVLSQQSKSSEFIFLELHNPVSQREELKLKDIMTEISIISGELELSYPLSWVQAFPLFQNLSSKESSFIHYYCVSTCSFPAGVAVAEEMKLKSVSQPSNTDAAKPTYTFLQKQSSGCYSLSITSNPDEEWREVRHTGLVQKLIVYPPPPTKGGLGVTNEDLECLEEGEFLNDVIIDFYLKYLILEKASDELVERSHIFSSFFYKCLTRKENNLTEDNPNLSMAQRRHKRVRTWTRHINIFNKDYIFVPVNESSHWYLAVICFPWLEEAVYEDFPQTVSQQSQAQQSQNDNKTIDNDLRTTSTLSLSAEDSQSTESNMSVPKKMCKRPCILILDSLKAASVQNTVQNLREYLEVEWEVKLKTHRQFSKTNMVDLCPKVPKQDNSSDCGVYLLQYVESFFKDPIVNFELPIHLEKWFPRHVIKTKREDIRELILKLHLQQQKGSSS
The experiment in a line: SENP7 protease inhibitors, SAR follow-up, biochemical, luminescence, set 2 (AID 588600). In kind it is functional.

Data set [8] concerns the target T6, Sentrin-specific protease 6 (Homo sapiens, UniProt Q9GZR1).
T6 sequence (Q9GZR1 whole entry): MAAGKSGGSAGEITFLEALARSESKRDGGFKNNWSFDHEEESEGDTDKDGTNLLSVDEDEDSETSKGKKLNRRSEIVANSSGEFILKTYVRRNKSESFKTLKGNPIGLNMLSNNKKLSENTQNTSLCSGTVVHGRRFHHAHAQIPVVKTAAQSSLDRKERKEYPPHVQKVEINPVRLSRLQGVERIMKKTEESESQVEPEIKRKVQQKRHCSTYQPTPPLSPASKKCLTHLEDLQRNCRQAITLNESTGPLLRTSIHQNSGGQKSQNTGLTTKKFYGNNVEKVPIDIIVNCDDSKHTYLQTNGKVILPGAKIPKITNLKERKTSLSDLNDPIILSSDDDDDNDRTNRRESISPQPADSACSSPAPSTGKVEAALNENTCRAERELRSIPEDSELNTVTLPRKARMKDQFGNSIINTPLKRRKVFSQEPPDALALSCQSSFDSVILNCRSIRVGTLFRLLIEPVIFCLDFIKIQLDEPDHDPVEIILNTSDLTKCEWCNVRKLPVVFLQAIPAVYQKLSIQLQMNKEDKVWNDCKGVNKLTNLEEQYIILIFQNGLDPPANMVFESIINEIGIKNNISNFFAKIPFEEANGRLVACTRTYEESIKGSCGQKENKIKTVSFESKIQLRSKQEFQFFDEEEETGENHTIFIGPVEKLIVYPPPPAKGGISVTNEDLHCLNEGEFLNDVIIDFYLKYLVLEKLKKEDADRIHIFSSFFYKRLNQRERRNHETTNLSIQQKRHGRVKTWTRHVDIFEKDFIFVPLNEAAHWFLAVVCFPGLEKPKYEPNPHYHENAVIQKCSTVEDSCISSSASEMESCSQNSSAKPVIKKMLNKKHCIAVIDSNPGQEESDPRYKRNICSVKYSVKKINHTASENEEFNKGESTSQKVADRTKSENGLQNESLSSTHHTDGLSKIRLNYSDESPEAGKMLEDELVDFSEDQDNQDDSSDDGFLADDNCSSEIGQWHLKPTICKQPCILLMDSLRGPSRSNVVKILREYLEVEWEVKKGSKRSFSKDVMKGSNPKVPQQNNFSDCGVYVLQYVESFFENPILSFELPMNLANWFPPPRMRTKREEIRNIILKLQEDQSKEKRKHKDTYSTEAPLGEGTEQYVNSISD
The experiment in a line: SENP6 protease inhibitors, SAR follow-up, biochemical, luminescence, set 2 (AID 588598). In kind it is functional.

Another data set has as its target T7, Caspase-3 (Homo sapiens, UniProt P42574).
T7 sequence (P42574 whole entry): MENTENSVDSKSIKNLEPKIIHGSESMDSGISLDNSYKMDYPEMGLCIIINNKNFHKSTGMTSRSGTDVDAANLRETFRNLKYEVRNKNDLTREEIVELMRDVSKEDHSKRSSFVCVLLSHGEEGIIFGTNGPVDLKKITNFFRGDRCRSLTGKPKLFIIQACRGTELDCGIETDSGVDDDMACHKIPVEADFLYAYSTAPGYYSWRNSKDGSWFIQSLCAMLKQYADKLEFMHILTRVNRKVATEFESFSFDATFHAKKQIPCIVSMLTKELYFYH
The experiment in a line: caspase-3 inhibitors as off-family protease, SAR follow-up, selectivity assay for SENP protease inhibitor project, biochemical, luminescence, set 2 (AID 588599). In kind it is functional.

For the next data set, the target named is Cytochrome P450 2C9 (Homo sapiens, UniProt P11712).
Cytochrome P450 2C9, sequence (P11712 whole entry): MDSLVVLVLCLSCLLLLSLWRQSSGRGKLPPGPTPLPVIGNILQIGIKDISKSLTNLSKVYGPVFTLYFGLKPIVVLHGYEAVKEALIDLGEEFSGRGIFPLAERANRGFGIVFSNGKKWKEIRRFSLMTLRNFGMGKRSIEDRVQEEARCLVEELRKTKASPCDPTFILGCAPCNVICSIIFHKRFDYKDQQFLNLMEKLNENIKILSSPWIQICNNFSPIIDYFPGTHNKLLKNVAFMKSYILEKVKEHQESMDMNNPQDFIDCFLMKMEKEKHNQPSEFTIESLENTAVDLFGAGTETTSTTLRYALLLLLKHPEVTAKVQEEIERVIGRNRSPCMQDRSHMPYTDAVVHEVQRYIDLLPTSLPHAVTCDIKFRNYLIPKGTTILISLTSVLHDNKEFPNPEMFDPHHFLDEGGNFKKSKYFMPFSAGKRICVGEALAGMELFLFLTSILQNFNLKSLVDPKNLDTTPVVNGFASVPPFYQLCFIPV
The target of data set [9] is Glycogen synthase kinase-3 beta (Homo sapiens, UniProt P49841). Nature of the data set: Inhibition of Human GSK-3 beta Activity Measured in Biochemical System Using Microfluidics - 2063-05_Inhibitor_Dose_DryPowder_Activity_Set2. [Related pubchem assays (depositor defined):AID2709].
Glycogen synthase kinase-3 beta, sequence (P49841 whole entry): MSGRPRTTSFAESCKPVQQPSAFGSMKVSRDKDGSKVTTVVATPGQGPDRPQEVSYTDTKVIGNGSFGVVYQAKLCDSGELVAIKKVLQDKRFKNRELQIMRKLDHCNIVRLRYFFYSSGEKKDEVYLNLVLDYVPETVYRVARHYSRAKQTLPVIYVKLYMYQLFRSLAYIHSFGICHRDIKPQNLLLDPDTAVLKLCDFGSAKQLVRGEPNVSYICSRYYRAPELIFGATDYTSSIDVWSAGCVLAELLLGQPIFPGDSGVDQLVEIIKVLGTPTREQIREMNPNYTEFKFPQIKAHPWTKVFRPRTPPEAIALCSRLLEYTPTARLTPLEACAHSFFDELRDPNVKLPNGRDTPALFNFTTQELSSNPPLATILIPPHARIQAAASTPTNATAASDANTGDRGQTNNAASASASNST
Data set [10] deals with Glycogen synthase kinase-3 alpha (Homo sapiens, UniProt P49840). The experiment in a line: Inhibition of Human GSK-3 alpha Activity Measured in Biochemical System Using Microfluidics - 2063-06_Inhibitor_Dose_DryPowder_Activity_Set2. [Related pubchem assays (depositor defined):AID2709].
Glycogen synthase kinase-3 alpha, sequence (P49840 whole entry): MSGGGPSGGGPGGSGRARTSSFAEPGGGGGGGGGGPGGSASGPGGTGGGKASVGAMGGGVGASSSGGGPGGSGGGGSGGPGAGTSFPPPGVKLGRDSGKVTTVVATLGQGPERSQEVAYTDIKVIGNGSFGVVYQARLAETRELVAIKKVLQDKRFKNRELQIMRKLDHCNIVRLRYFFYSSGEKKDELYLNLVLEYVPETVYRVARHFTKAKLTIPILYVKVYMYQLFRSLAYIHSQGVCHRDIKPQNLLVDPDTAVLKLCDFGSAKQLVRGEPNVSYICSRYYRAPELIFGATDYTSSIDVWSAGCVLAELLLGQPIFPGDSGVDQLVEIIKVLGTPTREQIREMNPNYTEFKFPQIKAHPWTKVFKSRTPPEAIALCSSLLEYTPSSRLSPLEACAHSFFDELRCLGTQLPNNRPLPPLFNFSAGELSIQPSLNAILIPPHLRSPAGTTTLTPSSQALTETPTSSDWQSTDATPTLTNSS
For the next data set, the target named is Cytochrome P450 2D6 (Homo sapiens, UniProt P10635).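 Further: CYP2D6 member of a cytochrome P450 panel assay.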
Cytochrome P450 2D6, sequence (P10635 whole entry): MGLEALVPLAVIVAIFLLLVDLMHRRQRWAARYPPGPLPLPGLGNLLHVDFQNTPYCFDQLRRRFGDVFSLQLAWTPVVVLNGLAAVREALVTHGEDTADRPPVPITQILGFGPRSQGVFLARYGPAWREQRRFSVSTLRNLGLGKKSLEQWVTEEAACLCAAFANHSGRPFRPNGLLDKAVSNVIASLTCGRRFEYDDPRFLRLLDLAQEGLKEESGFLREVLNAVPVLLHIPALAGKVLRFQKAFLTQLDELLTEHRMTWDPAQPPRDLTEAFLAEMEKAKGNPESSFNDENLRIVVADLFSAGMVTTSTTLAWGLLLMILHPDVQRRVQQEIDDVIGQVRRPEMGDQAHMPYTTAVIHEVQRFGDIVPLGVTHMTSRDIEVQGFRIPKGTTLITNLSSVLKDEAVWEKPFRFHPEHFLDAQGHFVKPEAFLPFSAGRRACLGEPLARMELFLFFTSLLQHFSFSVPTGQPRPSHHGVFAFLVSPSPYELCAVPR

Calls of active or inactive are those of the source.

Vascular endothelial growth factor receptor 2, sequence (P35968 whole entry): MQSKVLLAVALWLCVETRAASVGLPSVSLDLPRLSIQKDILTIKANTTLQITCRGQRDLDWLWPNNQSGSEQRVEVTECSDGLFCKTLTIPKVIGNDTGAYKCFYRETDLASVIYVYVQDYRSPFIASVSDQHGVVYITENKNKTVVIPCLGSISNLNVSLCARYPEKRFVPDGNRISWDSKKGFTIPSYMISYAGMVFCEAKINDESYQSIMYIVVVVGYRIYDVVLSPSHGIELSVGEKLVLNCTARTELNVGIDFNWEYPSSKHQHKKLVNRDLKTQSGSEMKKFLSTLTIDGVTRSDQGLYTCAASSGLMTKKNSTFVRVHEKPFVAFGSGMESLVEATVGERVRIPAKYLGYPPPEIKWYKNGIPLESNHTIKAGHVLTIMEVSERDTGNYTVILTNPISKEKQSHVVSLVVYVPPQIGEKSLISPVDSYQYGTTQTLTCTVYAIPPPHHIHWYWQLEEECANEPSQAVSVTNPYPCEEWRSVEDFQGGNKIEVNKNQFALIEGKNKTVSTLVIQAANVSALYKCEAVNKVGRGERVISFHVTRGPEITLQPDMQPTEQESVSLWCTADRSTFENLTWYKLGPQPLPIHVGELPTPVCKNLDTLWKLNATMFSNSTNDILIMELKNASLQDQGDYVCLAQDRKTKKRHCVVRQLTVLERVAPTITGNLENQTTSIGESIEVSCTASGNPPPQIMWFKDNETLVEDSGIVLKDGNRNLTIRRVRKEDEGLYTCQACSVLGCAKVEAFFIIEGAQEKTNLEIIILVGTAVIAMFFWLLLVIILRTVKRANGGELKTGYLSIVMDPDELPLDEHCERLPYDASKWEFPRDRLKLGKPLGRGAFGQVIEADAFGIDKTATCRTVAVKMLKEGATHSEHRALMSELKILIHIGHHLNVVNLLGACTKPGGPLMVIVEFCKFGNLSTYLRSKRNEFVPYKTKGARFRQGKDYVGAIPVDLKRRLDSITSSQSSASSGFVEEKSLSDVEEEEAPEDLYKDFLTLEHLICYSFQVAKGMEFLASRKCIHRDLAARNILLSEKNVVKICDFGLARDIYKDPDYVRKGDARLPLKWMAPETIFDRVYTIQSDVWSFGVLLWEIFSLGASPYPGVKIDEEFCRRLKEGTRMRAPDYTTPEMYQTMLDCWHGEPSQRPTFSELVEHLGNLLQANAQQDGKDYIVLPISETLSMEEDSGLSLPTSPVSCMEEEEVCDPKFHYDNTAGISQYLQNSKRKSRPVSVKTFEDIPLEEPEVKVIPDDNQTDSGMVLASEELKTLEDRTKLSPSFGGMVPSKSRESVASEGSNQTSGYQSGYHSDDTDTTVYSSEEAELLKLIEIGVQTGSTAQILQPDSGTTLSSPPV

A word on the IC50: it is the concentration that inhibits the measured activity by half. The term EC50 denotes the midpoint of the concentration-response curve. In the case of `CCC1=Nc2ccc(Br)cc2C(c2ccccc2)N1CC(=O)OC` (centres undefined), the IC50 in data set [1] was > 35 µM (not active); in data set [2], 13.2 µM (not active). Moreover, in data set [3], the EC50 is 14.3 µM (active).
In general, AC50 refers to the concentration at which the activity in the assay is half-maximal. Consider `C[C@@H]1O[C@@H](O[C@@H]2C(=O)c3c(O)cc(O)cc3O[C@H]2c2ccc(O)c(O)c2)[C@H](O)[C@H](O)[C@H]1O`, for which the AC50 in data set [4] was 10.2 µM (active).
In general, Ki refers to the equilibrium dissociation constant of an inhibitor or competing ligand from its target. `COc1ccc(-c2cc(-c3ccccc3)nc3ncnc(NC(=O)COCC(=O)O)c23)cc1`: the Ki (in data set [5]; on Aurora kinase B) was 1.26 µM (active) each time.
On to `Cc1ccc(-c2cc(CNC(=O)C(=O)c3c[nH]c4ccccc34)no2)cc1`, for which the IC50 (in data set [6]; in [7]; in [8]; on Caspase-3) was > 99 µM (inactive) each time.
Consider `Cn1c(SCc2nnc(-c3ccc(F)cc3)o2)nnc1C1COc2ccccc2O1` (centres undefined), for which the concentration at half-maximal activity (AC50) result on Cytochrome P450 2C9 was “inconclusive”; in data set [9], 0.7 µM (active); in [10], 1.33 µM (active); at Cytochrome P450 2D6, 5.01 µM (inconclusive).

Values taken from ChEMBL document CHEMBL1201862, “PubChem BioAssay data set” (2004).
